# What was measured:
# Type in all cases: biochemical
# Aurora A = target: T1, Aurora A (Homo sapiens, UniProt O14965); experiment: Aurora A counter screen; details: read-out: AUR-A (IC50)
# T1 sequence (O14965 1-403): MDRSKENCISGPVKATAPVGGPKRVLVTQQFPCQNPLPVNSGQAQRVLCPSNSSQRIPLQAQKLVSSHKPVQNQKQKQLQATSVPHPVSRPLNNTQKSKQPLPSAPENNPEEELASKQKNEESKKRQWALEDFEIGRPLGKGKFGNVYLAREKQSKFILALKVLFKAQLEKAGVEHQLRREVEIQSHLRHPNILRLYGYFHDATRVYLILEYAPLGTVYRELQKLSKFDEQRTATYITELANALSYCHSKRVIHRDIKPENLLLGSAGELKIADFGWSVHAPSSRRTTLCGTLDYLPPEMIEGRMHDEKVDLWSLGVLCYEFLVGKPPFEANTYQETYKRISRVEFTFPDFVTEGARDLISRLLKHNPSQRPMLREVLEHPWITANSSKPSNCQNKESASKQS
# Summary of the method: (§1)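 Radiometric assay with full-length recombinant NUAK2 in 8 mM MOPS pH 7.0, 0.2 mM EDTA, 10 mM magnesium acetate, 300 μM peptide substrate and [33P]-ATP, 40 min at room temperature. Phosphoric acid stop, filter capture, scintillation counting. Aurora A and NUAK1 used as counter screens.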
# NUAK2 (h) = target: T2, NUAK2 (h) (Homo sapiens, UniProt Q9H093); experiment: NUAK2 enzymatic assay (radiometric, Eurofins); details: for IC50: radiometric, full-length recombinant enzyme; for AUR-A (IC50, nM)/NUAK2 (IC50, nM): NUAK2 selectivity over Aurora-A, ratio of IC50s
# T2 construct: This assay was done radiometrically using full-length, recombinant enzyme; purchased Eurofins
# T2 sequence (Q9H093 1-628): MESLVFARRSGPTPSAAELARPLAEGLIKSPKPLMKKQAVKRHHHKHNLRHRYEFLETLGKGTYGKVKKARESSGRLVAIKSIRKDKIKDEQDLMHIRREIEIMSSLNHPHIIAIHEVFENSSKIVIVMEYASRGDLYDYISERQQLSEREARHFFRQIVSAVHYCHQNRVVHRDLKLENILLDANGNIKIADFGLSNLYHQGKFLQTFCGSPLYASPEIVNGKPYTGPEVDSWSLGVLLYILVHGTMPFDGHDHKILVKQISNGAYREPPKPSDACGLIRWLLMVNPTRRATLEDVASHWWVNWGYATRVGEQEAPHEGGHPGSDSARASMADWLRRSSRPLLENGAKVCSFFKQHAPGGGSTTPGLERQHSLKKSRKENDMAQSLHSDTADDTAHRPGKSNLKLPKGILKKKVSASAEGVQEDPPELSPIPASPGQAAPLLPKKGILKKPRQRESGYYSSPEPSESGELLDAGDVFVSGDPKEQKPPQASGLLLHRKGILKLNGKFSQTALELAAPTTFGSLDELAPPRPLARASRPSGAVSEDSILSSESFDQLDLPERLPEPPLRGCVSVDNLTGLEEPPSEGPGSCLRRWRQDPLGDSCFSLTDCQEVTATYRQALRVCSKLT
# Summary of the method: as §1
# NUAK1 = target: T3, NUAK1 (Homo sapiens, UniProt O60285); experiment: NUAK1 counter screen
# T3 sequence (O60285 1-661): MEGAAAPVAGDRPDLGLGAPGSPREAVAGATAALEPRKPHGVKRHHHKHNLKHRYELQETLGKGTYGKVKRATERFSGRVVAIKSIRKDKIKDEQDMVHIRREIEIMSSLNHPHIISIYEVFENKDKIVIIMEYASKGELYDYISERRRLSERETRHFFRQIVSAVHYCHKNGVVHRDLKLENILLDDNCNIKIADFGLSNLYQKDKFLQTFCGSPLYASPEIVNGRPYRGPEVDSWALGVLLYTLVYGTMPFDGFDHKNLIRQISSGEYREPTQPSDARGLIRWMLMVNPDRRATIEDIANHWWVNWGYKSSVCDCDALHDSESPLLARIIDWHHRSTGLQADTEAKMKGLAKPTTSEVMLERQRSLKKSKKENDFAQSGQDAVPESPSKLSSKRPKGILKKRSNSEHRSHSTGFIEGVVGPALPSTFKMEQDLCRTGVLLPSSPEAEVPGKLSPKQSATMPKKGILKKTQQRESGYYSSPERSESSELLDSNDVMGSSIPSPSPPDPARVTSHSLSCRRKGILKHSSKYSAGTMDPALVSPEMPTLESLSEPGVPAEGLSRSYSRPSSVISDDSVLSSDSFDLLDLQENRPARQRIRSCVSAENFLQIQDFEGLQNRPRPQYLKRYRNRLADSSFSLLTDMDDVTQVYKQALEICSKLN
# Summary of the method: as §1
IC50 (Aurora A) [nM],IC50 (NUAK2 (h)) [nM],IC50 (NUAK1) [nM],"AUR-A (IC50, nM)/NUAK2 (IC50, nM) (NUAK2 (h))",SMILES
11 to 100,0.1 to 10,0.1 to 10,6,"COc1cc(N2CCN(C)CC2)ccc1Nc1ncc(Cl)c(Nc2ccsc2C(N)=O)n1 [Compound C-1, reference compound]"
101 to 1000,11 to 100,11 to 100,,"CN1CCN(c2cc(OC(F)F)c(Nc3ncc(Cl)c(Nc4ccsc4C(N)=O)n3)cc2F)CC1 [Compound I-6, 3-((5-chloro-2-((2-(difluoromethoxy)-5-fluoro-4-(4-methylpiperazin-1-yl)phenyl)amino)pyrimidin-4-yl)amino)thiophene-2-carboxamide]"
101 to 1000,11 to 100,11 to 100,,"Cc1csc(Nc2nc(Nc3ccc(N4CCN(C)CC4)cc3OC(F)F)ncc2Cl)c1C(N)=O [Compound I-15, 2-((5-chloro-2-((2-(difluoromethoxy)-4-(4-methylpiperazin-1-yl)phenyl)amino)pyrimidin-4-yl)amino)-4-methylthiophene-3-carboxamide]"
101 to 1000,11 to 100,101 to 1000,,"CN1CCc2cc(OC(F)F)c(Nc3ncc(Cl)c(Nc4ccsc4C(N)=O)n3)cc2C1 [Compound I-26, 3-((5-chloro-2-((6-(difluoromethoxy)-2-methyl-1,2,3,4-tetrahydroisoquinolin-7-yl)amino)pyrimidin-4-yl)amino)thiophene-2-carboxamide]"
101 to 1000,11 to 100,11 to 100,,"CN1CCN(c2ccc(Nc3ncc(F)c(Nc4ccsc4C(N)=O)n3)c(OC(F)F)c2)CC1 [Compound I-37, 3-((2-((2-(difluoromethoxy)-4-(4-methylpiperazin-1-yl)phenyl)amino)-5-fluoropyrimidin-4-yl)amino)thiophene-2-carboxamide]"
101 to 1000,11 to 100,11 to 100,,"CN1CCC2(CC1)CCN(c1ccc(Nc3ncc(Cl)c(Nc4ccsc4C(N)=O)n3)c(OC(F)F)c1)C2 [Compound I-53, 3-((5-chloro-2-((2-(difluoromethoxy)-4-(8-methyl-2,8-diazaspiro[4.5]decan-2-yl)phenyl)amino)pyrimidin-4-yl)amino)thiophene-2-carboxamide]"
101 to 1000,0.1 to 10,11 to 100,14,"Cc1c(Nc2ncc(Cl)c(Nc3ccsc3C(N)=O)n2)ccc(N2CCN(C)CC2)c1F [Compound C-5, reference compound]"
101 to 1000,11 to 100,11 to 100,,"NC(=O)c1sccc1Nc1nc(Nc2ccc(N3CCN4CCOC[C@@H]4C3)cc2OC(F)F)ncc1Cl [Compound I-49, (S)-3-((5-chloro-2-((2-(difluoromethoxy)-4-(hexahydropyrazino[2,1-c][1,4]oxazin-8(1H)-yl)phenyl)amino)pyrimidin-4-yl)amino)thiophene-2-carboxamide]"
101 to 1000,0.1 to 10,11 to 100,137,"NC(=O)c1sccc1Nc1nc(Nc2ccc(N3CCN4CCC[C@@H]4C3)cc2OC(F)F)ncc1Cl [Compound I-44, (R)-3-((5-chloro-2-((2-(difluoromethoxy)-4-(hexahydropyrrolo[1,2-a]pyrazin-2(1H)-yl)phenyl)amino)pyrimidin-4-yl)amino)thiophene-2-carboxamide]"

# Continued, molecule first:
SMILES,IC50 (Aurora A) [nM],IC50 (NUAK2 (h)) [nM],IC50 (NUAK1) [nM],"AUR-A (IC50, nM)/NUAK2 (IC50, nM) (NUAK2 (h))"
"CCN1CCN(C2CCN(c3ccc(Nc4ncc(Cl)c(Nc5ccsc5C(N)=O)n4)c(OC(F)F)c3)CC2)CC1 [Compound I-61, 3-((5-chloro-2-((2-(difluoromethoxy)-4-(4-(4-ethylpiperazin-1-yl)piperidin-1-yl)phenyl)amino)pyrimidin-4-yl)amino)thiophene-2-carboxamide]",11 to 100,11 to 100,11 to 100,
"C[C@H]1CN(C2CCN(c3ccc(Nc4ncc(C(F)(F)F)c(Nc5ccsc5C(N)=O)n4)c(OC(F)F)c3)CC2)CCN1C [Compound I-68, (S)-3-((2-((2-(difluoromethoxy)-4-(4-(3,4-dimethylpiperazin-1-yl)piperidin-1-yl)phenyl)amino)-5-(trifluoromethyl)pyrimidin-4-yl)amino)thiophene-2-carboxamide]",101 to 1000,11 to 100,11 to 100,
"C[C@H]1CN(C2CCN(c3ccc(Nc4ncc(Cl)c(Nc5ccsc5C(N)=O)n4)c(OC(F)F)c3)CC2)CCN1C [Compound I-65, (S)-3-((5-chloro-2-((2-(difluoromethoxy)-4-(4-(3,4-dimethylpiperazin-1-yl)piperidin-1-yl)phenyl)amino)pyrimidin-4-yl)amino)thiophene-2-carboxamide]",101 to 1000,11 to 100,11 to 100,
NC(=O)c1sccc1Nc1nc(Nc2ccc(N3CCC(N4CCCCC4)CC3)cc2OC(F)F)ncc1C(F)(F)F [Compound I-76],101 to 1000,0.1 to 10,11 to 100,
"C[C@@H]1CN(c2ccc(Nc3ncc(Cl)c(Nc4sccc4C(N)=O)n3)c(OC(F)F)c2)C[C@H](C)N1C [Compound I-11, 2-((5-chloro-2-((2-(difluoromethoxy)-4-((3R,5S)-3,4,5-trimethylpiperazin-1-yl)phenyl)amino)pyrimidin-4-yl)amino)thiophene-3-carboxamide]",101 to 1000,0.1 to 10,11 to 100,
"COc1cc(N2CCC(N3CCN(C)CC3)CC2)ccc1Nc1ncc(Cl)c(Nc2ccsc2C(N)=O)n1 [Compound C-3, reference compound]",101 to 1000,11 to 100,11 to 100,6
"CC(C)(C)N1CCN(C2CCN(c3ccc(Nc4ncc(Cl)c(Nc5ccsc5C(N)=O)n4)c(OC(F)F)c3)CC2)CC1 [Compound I-63, 3-((2-((4-(4-(4-(tert-butyl)piperazin-1-yl)piperidin-1-yl)-2-(difluoromethoxy)phenyl)amino)-5-chloropyrimidin-4-yl)amino)thiophene-2-carboxamide]",101 to 1000,11 to 100,0.1 to 10,
"CC(C)N1C[C@@H]2C[C@H]1CN2c1ccc(Nc2ncc(Cl)c(Nc3ccsc3C(N)=O)n2)c(OC(F)F)c1 (stereo in doubt) [Compound I-35, 3-((5-chloro-2-((2-(difluoromethoxy)-4-((1S,4S)-5-isopropyl-2,5-diazabicyclo[2.2.1]heptan-2-yl)phenyl)amino)pyrimidin-4-yl)amino)thiophene-2-carboxamide]",101 to 1000,11 to 100,11 to 100,
"NC(=O)c1sccc1Nc1nc(Nc2ccc(N3CCC(N4CCCC4)CC3)cc2OC(F)F)ncc1Cl [Compound I-48, 3-((5-chloro-2-((2-(difluoromethoxy)-4-(4-(pyrrolidin-1-yl)piperidin-1-yl)phenyl)amino)pyrimidin-4-yl)amino)thiophene-2-carboxamide]",11 to 100,0.1 to 10,0.1 to 10,
"C[C@@H]1CN(C2CCN(c3ccc(Nc4ncc(Cl)c(Nc5ccsc5C(N)=O)n4)c(OC(F)F)c3)CC2)C[C@H](C)N1C [Compound I-64, 3-((5-chloro-2-((2-(difluoromethoxy)-4-(4-((3R,5S)-3,4,5-trimethylpiperazin-1-yl)piperidin-1-yl)phenyl)amino)pyrimidin-4-yl)amino)thiophene-2-carboxamide]",101 to 1000,0.1 to 10,11 to 100,

# From patent publication US20240025887A1, “THIENYL AND CYCLOALKYL AMINOPYRIMIDINE COMPOUNDS AS INHIBITORS OF NUAK KINASES, COMPOSITIONS AND USES THEREOF” (Ontario Institute for Cancer Research (OICR), priority 2021, published 2024)
